Assay results: ChEMBL document CHEMBL2057111, “(+)-Pinoresinol is a putative hypoglycemic agent in defatted sesame (Sesamum indicum) seeds though inhibiting α-glucosidase” (Bioorg Med Chem Lett, 2012)
Calls of active or inactive are those of the source. No cut-off for these calls is given here.

Columns and labels:
[1] = target: Sucrase-isomaltase, intestinal (Rattus norvegicus) (UniProt P23739); assay: Inhibition of rat intestinal sucrase using sucrose as substrate at 10 mg/ml preincubated for 10 mins before substrate addition by glucose oxidase method
[2] = target: Lysosomal alpha-glucosidase (Rattus norvegicus) (UniProt Q6P7A9); assay: Inhibition of rat intestinal maltase using maltose as substrate at 10 mg/ml preincubated for 10 mins before substrate addition by glucose oxidase method
Saccharomyces cerevisiae = assay: Inhibition of bakers yeast alpha-glucosidase using p-nitrophenyl-(alpha-D-glucopyranoside) as substrate at 10 mg/ml preincubated for 10 mins before substrate addition by microplate reader
[3] = target: Lysosomal alpha-glucosidase (Rattus norvegicus) (UniProt Q6P7A9); conditions: 0.1 to 1 mg/ml
[4] = Inhibition of bakers yeast alpha-glucosidase using p-nitrophenyl-(alpha-D-glucopyranoside) as substrate preincubated for 10 mins before substrate addition by microplate reader; parameters: species or system Saccharomyces cerevisiae
[5] = target: Lysosomal alpha-glucosidase (Rattus norvegicus) (UniProt Q6P7A9); conditions: 0.1 to 1 mg/ml; remark: listed apart in the source
Description: Non-competitive inhibition of rat intestinal maltase using maltose as substrate assessed as enzyme-substrate-inhibitor complex formation at 0.1 to 1 mg/ml by Lineweaver-Burk plot analysis

[6] = target: Lysosomal alpha-glucosidase (Rattus norvegicus) (UniProt Q6P7A9); conditions: 0.1 to 1 mg/ml; remark: listed apart in the source
Description: Mixed type inhibition of rat intestinal maltase using maltose as substrate at 0.1 to 1 mg/ml

Sucrase-isomaltase, intestinal (Rattus norvegicus), sequence (P23739 1-1013 limits assumed): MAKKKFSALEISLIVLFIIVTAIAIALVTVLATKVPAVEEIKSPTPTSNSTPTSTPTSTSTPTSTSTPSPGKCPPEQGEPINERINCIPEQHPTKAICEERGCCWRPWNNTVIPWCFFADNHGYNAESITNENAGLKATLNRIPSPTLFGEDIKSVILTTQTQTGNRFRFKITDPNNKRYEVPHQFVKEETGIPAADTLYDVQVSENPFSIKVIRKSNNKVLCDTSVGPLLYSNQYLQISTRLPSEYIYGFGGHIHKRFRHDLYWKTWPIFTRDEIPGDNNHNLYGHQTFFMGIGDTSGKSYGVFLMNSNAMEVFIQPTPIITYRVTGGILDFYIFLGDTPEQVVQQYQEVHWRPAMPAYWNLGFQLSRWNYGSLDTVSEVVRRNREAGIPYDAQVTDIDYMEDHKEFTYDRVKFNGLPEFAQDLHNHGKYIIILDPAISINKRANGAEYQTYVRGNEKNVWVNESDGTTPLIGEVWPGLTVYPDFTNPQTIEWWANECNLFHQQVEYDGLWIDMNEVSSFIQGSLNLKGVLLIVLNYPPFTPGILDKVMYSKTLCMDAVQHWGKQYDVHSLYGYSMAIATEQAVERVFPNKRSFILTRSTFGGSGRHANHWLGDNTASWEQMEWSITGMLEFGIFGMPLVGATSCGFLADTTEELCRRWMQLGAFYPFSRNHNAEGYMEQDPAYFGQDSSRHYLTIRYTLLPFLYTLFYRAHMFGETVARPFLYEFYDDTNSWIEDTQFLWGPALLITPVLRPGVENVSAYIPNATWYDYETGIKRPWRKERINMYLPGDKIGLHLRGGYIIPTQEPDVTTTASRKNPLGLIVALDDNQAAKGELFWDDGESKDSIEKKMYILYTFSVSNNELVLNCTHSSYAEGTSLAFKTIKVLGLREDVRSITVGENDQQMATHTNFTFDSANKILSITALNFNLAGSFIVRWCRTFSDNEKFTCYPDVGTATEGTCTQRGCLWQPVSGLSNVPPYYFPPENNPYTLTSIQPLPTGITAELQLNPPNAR
Sucrase-isomaltase, intestinal (Rattus norvegicus), sequence (P23739 1014-1841 limits assumed): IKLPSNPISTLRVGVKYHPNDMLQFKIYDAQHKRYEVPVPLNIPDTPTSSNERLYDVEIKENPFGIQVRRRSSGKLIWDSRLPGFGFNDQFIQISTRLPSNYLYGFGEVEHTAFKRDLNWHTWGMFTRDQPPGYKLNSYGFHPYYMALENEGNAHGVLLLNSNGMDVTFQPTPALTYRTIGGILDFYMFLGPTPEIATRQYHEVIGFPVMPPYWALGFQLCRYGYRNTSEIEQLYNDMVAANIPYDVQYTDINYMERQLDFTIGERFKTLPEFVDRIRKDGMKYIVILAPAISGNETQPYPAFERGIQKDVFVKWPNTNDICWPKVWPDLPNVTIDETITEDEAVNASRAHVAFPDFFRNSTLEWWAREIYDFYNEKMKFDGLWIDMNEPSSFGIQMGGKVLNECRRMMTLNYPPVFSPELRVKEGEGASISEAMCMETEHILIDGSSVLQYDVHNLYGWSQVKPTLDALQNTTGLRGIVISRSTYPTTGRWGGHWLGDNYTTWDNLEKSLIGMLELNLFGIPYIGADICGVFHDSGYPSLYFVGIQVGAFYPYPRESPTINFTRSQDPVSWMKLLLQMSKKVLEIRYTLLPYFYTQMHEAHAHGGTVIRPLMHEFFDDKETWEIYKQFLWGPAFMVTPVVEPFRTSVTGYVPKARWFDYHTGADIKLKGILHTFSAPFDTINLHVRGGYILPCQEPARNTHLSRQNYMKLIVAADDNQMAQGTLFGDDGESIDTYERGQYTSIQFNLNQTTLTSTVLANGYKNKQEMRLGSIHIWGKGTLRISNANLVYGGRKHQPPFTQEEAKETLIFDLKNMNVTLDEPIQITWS
Lysosomal alpha-glucosidase (Rattus norvegicus), sequence (Q6P7A9 whole entry): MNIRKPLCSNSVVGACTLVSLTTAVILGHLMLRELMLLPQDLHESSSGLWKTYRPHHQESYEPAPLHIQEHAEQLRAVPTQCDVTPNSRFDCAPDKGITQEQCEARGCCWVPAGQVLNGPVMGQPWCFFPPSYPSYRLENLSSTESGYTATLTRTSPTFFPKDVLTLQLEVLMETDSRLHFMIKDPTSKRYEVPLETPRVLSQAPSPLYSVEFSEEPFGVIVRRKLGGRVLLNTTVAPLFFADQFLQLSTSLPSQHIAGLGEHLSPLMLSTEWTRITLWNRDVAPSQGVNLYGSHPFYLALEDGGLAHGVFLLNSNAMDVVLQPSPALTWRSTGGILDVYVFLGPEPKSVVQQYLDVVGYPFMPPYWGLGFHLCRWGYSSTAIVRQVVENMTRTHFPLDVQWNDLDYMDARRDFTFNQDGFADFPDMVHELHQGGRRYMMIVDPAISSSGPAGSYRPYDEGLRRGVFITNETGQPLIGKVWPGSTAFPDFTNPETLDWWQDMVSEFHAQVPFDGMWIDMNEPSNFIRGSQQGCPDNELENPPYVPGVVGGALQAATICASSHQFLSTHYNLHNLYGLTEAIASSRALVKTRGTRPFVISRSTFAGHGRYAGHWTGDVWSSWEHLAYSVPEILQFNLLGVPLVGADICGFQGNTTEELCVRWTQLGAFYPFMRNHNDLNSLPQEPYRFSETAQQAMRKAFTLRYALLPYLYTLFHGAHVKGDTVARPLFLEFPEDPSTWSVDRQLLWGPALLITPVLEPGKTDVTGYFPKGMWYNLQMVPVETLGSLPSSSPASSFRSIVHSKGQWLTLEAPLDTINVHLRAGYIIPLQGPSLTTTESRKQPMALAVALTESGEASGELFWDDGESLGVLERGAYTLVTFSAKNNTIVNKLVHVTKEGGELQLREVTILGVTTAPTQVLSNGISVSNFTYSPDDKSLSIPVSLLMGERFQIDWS

Structure (SMILES) | inhibition [1] [%] | inhibition [2] [%] | inhibition (Saccharomyces cerevisiae) [%] | inhibition [3] | IC50 [4] [µM] | inhibition [5] | inhibition [6]
OC[C@H]1O[C@@H](Oc2cc3c(cc2[C@H]2OC[C@H]4[C@@H]2CO[C@@H]4c2ccc4c(c2)OCO4)OCO3)[C@H](O)[C@@H](O)[C@@H]1O | < 30 | < 30 | < 30 | – | – | – | –
COc1cc([C@@H]2OC[C@@H]3[C@H]2CO[C@H]3c2ccc(O)c(OC)c2)ccc1O [(+)-PINORESINOL] | < 30 | – | – | Active | 492 | Active | Active
c1cc2c(cc1[C@H]1OC[C@H]3[C@@H]1CO[C@@H]3c1ccc3c(c1)OCO3)OCO2 [SESAMIN] | < 30 | < 30 | – | – | 450 | – | –
c1cc2c(cc1O[C@H]1OC[C@H]3[C@@H]1CO[C@@H]3c1ccc3c(c1)OCO3)OCO2 [SESAMOLIN] | < 30 | < 30 | – | – | 200 | – | –
